# Reference: patent publication US8278312B2, “Imidazo 1,2-a pyrimidine derivatives for the treatment of diseases such as diabetes” (Merck Patent Gesellschaft mit Beschränkter Haftung, priority 2007, dated 2012)
# How the values were obtained:
# SGLT1 = target: T1, SGLT1 (Homo sapiens, UniProt P13866); experiment: 14C-AMG uptake in BHK cells transfected with SGLT1 (96-well cell-based assay); conditions: 50 μM AMG, 37° C., 90 min
# T1 construct: expressed in transfected cells
# T1 sequence (P13866 1-664): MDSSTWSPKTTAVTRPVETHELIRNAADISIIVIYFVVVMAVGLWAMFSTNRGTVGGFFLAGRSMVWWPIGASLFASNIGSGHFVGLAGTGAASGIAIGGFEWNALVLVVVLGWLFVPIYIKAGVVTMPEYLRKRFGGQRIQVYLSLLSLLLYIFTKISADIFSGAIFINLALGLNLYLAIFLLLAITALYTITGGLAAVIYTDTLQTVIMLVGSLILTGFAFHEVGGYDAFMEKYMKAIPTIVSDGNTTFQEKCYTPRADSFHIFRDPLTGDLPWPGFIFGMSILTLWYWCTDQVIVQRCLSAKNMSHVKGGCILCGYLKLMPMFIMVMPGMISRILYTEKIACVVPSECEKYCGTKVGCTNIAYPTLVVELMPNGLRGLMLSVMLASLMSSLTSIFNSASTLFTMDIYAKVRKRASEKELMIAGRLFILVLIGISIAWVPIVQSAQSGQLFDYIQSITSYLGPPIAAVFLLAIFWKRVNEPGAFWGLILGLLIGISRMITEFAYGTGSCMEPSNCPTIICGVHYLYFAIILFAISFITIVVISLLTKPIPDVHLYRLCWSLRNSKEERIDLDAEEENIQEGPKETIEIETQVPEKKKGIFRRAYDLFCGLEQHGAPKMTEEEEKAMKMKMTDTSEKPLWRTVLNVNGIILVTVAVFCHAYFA
# Source text: (§1) The compounds can be tested for their SGLT inhibition properties by means of BHK cells expressing SGLT1 and SGLT2. The production of the cells and the testing can be carried out as described below.
# To construct the SGLT1 expression vector (KL225), the SLC5A1 gene (homologous to NM_000343) was amplified from a cDNA library using standard PCR technology and cloned over NheI/XhoI sites into the pcDNA3.1 expression vector (Invitrogen) containing neomycin as a selection marker. In this vector, transcription uses the enhancer/promoter of human cytomegalovirus.
# (§2) The final vector KL225 together with an additional vector containing a dihydrofolate reductase gene as a selection marker was introduced into cells. Transfection into BHK21 cells (ATCC CCL-10), cultivated in DMEM medium (GIBCO/BRL), supplemented with 10% foetal calf serum (FCS) and 20 mM glutamine, was carried out using calcium phosphate transfections according to Graham, F. L. and van der Ebb, A. J. (1973), Virology 52: 456 with 5-20 μg of uncut plasmids for 10^7 cells. Stable transfectants were selected in medium containing 1 mg/ml of G418 (GIBCO/BRL) and 20-5000 nM methotrexate as final concentration, where only cells which expressed the neomycin gene and overexpressed the dhfr gene were able to grow. After growth for 2-3 weeks, the cells were cloned (0.5 cells/well) and the clones were investigated for SGLT expression in radioactivity uptake tests. […]
# (§3) A 96-well cell-based assay was developed and adapted to HTS requirements:
# (§4) BHK cells (transfected with SGLT1 or SGLT2) were seeded into 96-well microtitre plates (Cultureplates, Perkin Elmer). After at least 24 h, medium was removed, and the cell layer was washed with assay buffer (140 mM NaCl, 2 mM KCl, 1 mM CaCl2, 1 mM MgCl2, 10 mM HEPES, 5 mM Tris, adjusted to pH 7.4 using 1 M KOH). After addition of 40 μl of assay buffer, 50 μl of AMG (50 μM for SGLT1 and 2 mM for SGLT2) in the presence or absence of compounds, the cells were incubated in a total volume of 100 μl at 37° C. for 90 min. Supernatant was removed by suction and discarded. Cells were washed and lysed by addition of 50 μl of water. After 10 min at room temperature, 200 μl of Micrsoscint 40 (Perkin Elmer) were added. The radioactivity was counted in a Topcount microplate scintillation counter (Perkin Elmer). The non-specific uptake was determined in sodium-free assay buffer (266 mM sucrose, 2 mM KCl, 1 mM CaCl2, 1 mM MgCl2, 10 mM HEPES, 5 mM Tris, adjusted to pH 7.4 using 1 M KOH).
# SGLT2 = target: T2, SGLT2 (Homo sapiens, UniProt P31639); experiment: 14C-AMG uptake in BHK cells transfected with SGLT2 (96-well cell-based assay); conditions: 2 mM AMG, 37° C., 90 min
# T2 construct: expressed in transfected cells
# T2 sequence (P31639 1-672): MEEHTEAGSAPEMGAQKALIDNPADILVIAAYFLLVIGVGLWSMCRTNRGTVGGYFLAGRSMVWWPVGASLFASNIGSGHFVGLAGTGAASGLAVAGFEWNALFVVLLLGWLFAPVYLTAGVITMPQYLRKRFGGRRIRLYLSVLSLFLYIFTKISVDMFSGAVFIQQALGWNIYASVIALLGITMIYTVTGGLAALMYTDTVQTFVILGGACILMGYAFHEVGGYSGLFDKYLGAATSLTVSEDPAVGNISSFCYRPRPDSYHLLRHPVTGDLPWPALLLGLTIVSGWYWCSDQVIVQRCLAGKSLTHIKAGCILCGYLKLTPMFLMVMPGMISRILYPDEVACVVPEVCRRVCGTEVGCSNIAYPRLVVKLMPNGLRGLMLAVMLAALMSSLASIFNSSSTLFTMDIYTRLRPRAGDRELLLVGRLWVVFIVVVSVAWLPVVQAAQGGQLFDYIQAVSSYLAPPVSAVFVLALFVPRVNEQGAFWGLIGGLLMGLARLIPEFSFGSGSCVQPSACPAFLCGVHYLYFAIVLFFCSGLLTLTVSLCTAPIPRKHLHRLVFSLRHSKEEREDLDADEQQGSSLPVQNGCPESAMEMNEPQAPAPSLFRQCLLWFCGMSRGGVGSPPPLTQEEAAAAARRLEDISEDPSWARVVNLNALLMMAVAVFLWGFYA
# Source text: as §1
# To construct the SGLT2 expression vector (KL224), the SLC5A2 gene (homologous to NM_003041) was amplified from a cDNA library using standard PCR technology and cloned over NheI/XhoI sites into PCI-neo expression vector (Promega) containing neomycin as a selection marker. In this vector, transcription uses the enhancer/promoter of human cytomegalovirus and the SV40 polyadenylation signal.
# as §2, with “KL224” for “KL225”
# as §3, §4
SMILES,IC50 (SGLT1),IC50 (SGLT2)
"Cc1cccc(C)c1Nc1c(-c2ccccc2OCC(N)=O)nc2ncccn12 [Compound A1, 2-{2-[3-(2,6-Dimethylphenylamino)-imidazo[1,2-a]pyrimidin-2-yl]phenoxy}-acetamide]",> 10000 nM,1000 to 10000 nM
Cc1cc(C)n2c(Nc3c(C)cccc3C)c(-c3ccccc3OCC(N)=O)nc2n1 [Compound A2],> 10000 nM,> 10000 nM
"CNc1nnc(-c2cc(OC)cc(OC)c2-c2nc3ncccn3c2Nc2c(Cl)cccc2Cl)o1 [Compound A3, (2,6-dichlorophenyl)-{2-[2,4-dimethoxy-6-(5-methylamino-1,3,4-oxadiazol-2-yl)phenyl]imidazo[1,2-a]pyrimidin-3-yl}amine]",10 to 1000 nM,10 to 1000 nM
"CNc1nnc(-c2cc(OC)cc(OC)c2-c2nc3ncccn3c2Nc2c(Cl)cc(F)cc2Cl)o1 [Compound A4, (2,6-Dichloro-4-fluorophenyl)-{2-[2,4-dimethoxy-6-(5-methylamino-1,3,4-oxadiazol-2-yl)phenyl]imidazo[1,2-a]-pyrimidin-3-yl}amine]",10 to 1000 nM,10 to 1000 nM
"CCNc1nnc(-c2cc(OC)cc(OC)c2-c2nc3ncccn3c2Nc2c(Cl)cccc2Cl)o1 [Compound A5, (2,6-Dichlorophenyl)-{2-[2-(5-ethylamino-1,3,4-oxadiazol-2-yl)-4,6-dimethoxy-phenyl]imidazo[1,2-a]pyrimidin-3-yl}-amine]",1000 to 10000 nM,10 to 1000 nM
"COc1cc(OC)c(-c2nc3ncccn3c2Nc2c(Cl)cccc2Cl)c(-c2n[nH]c(=O)o2)c1 [Compound A6, 5-{2-[3-(2,6-dichlorophenylamino)imidazo[1,2-a]-pyrimidin-2-yl]-3,5-dimethoxyphenyl}-3H-1,3,4-oxadiazol-2-one]",> 10000 nM,1000 to 10000 nM
CCc1cccc(OCC(N)=O)c1-c1nc2ncccn2c1Nc1c(Cl)cccc1Cl [Compound A7],1000 to 10000 nM,10 to 1000 nM
"CCc1cccc(OCC(N)=O)c1-c1nc2ncccn2c1Nc1c(C)cccc1C [Compound A8, 2-{2-[3-(2,6-dimethylphenylamino)imidazo[1,2-a]-pyrimidin-2-yl]-3-ethylphenoxy}acetamide]",1000 to 10000 nM,1000 to 10000 nM
CCc1cc(OC)cc(OCC(N)=O)c1-c1nc2ncccn2c1Nc1c(C)cccc1C [Compound A9],> 10000 nM,10 to 1000 nM
"COc1cc(C)c(-c2nc3ncccn3c2Nc2c(C)cccc2C)c(OCC(N)=O)c1 [Compound A10, 2-{2-[3-(2,6-Dimethylphenylamino)-imidazo[1,2-a]pyrimidin-2-yl]-5-methoxy-3-methylphenoxy}acetamide]",> 10000 nM,10 to 1000 nM
"CNc1nnc(-c2cc(OC)cc(OC)c2-c2nc3ncccn3c2Nc2c(C)cccc2C)o1 [Compound A11, {2-[2,4-Dimethoxy-6-(5-methylamino-1,3,4-oxadiazol-2-yl)phenyl]imidazo-[1,2-a]pyrimidin-3-yl}-(2,6-dimethyl-phenyl)amine]",1000 to 10000 nM,10 to 1000 nM
"CCc1cc(OC)cc(OCC(N)=O)c1-c1nc2ncccn2c1Nc1c(Cl)cccc1Cl [Compound A12, 2-{2-[3-(2,6-Dichlorophenylamino)-imidazo[1,2-a]pyrimidin-2-yl]-3-ethyl-5-methoxyphenoxy}acetamide]",> 10000 nM,10 to 1000 nM
"CNc1nnc(-c2ccccc2-c2nc3ncccn3c2Nc2c(Cl)cc(F)cc2Cl)o1 [Compound A13, (2,6-Dichloro-4-fluorophenyl)-{2-[2-(5-methylamino-1,3,4-oxadiazol-2-yl)-phenyl]imidazo[1,2-a]pyrimidin-3-yl}-amine]",1000 to 10000 nM,10 to 1000 nM
"CCNc1nnc(-c2ccccc2-c2nc3ncccn3c2Nc2c(Cl)cccc2Cl)o1 [Compound A15, (2,6-Dichlorophenyl)-{2-[2-(5-ethylamino-1,3,4-oxadiazol-2-yl)phenyl]imidazo-[1,2-a]pyrimidin-3-yl}amine]",1000 to 10000 nM,10 to 1000 nM
"CNc1nnc(-c2cc(Cl)cc(Cl)c2-c2nc3ncccn3c2Nc2c(C)cccc2C)o1 [Compound A16, {2-[2,4-Dichloro-6-(5-methylamino-1,3,4-oxadiazol-2-yl)phenyl]imidazo[1,2-a]-pyrimidin-3-yl}-(2,6-dimethylphenyl)amine]",1000 to 10000 nM,10 to 1000 nM
"COc1cc(C(N)=O)c(-c2nc3ncccn3c2Nc2c(Cl)cccc2Cl)c(OC)c1OC [Compound A17, 2-[3-(2,6-dichlorophenylamino)imidazo[1,2-a]pyrimidin-2-yl]-3,5,4-trimethoxybenzamide]",> 10000 nM,1000 to 10000 nM
"COc1cc(OC)c(-c2nc3ncccn3c2Nc2c(Cl)cccc2Cl)c(C(=O)NN)c1 [Compound A18, 2-[3-(2,6-dichlorophenylamino)imidazo[1,2-a]pyrimidin-2-yl]-3,5-dimethoxybenzohydrazide]",> 10000 nM,1000 to 10000 nM
"CNc1nnc(-c2cccc(Cl)c2-c2nc3ncccn3c2Nc2c(C)cccc2C)o1 [Compound A19, {2-[2-Chloro-6-(5-methylamino-1,3,4-oxadiazol-2-yl)phenyl]imidazo[1,2-a]-pyrimidin-3-yl}-(2,6-dimethylphenyl)amine]",1000 to 10000 nM,10 to 1000 nM
"COC(=O)c1cccc(Cl)c1-c1nc2ncccn2c1Nc1c(C)cccc1C [Compound A20, Methyl 3-chloro-2-[3-(2,6-dimethyl-phenylamino)imidazo[1,2-a]pyrimidin-2-yl)benzoate]",> 10000 nM,10 to 1000 nM
